The results in this text go back to PMC12040169 (PLOS Biology, 2025).

The series in a line: in vitro. The conditions noted are these: human, hela cells, % viability.

Broadly, the viability is a read-out of living cells in per cent, often relative to untreated cells. In the case of `Cc1ccc2c(c1)nc(CNC(=O)NCc1ccnc(C)n1)n2C` [CBK304292], the viability at 28.5 h, 10 µM was determined as 101%. `CCOC(=O)C1CCN(CCOc2ccc3ccccc3c2)CC1` [CBK270128C]: the viability at 28.5 h, 10 µM came to 95.4%. `Cn1c(Cc2nn(C)c(=O)c3ccccc23)nnc1SCC(=O)C(C)(C)C` [CBK010985]: the viability at 28.5 h, 10 µM came to 105%.

As to `O=C(Nc1cccc(-c2noc(Cc3ccccc3)n2)c1)c1cccs1` [CBK270244], the viability at 28.5 h, 10 µM stood at 101%. With `CC1(C)COC(CCN2CCN(c3ccc(F)cc3)CC2)c2ccccc21` (stereo not shown) [CBK024080C], the viability at 28.5 h, 10 µM is 105%. For the molecule `Cc1noc(NS(=O)(=O)c2ccc(NC(=O)c3cc(-c4ccccc4Cl)nc4ccccc34)cc2)c1C` [CBK296108], the viability at 28.5 h, 10 µM worked out at 80.6%. Take `Cn1cc(CCCC(=O)NCCC2=CCCCC2)c2ccccc21` [CBK061756]: the viability at 28.5 h, 10 µM was determined as 99.2%. Consider `Cn1c(N2CC[C@H](O)C2)nc2cc(C(=O)NC3CCNCC3)ccc21` [CBK306873], for which the viability at 28.5 h, 10 µM turned out to be 98.1%.

For the molecule `Cc1ccc(S(=O)(=O)NC(C)(C)CN2CCN(C(c3ccccc3)c3ccccc3)CC2)cc1` [CBK262799], the viability at 28.5 h, 10 µM was 90%.

For `O=C(NC1CCN(c2nc3cccnc3s2)CC1)c1ccsc1` [CBK304342], the viability at 28.5 h, 10 µM was 93%.

For `O=C(NCCc1cccs1)Nc1ccccc1OC(F)(F)F` [CBK044873], the viability at 28.5 h, 10 µM worked out at 98%. As to `Fc1cc2c3c(c1)c1c(n3CCC2)CCNCC1` [CBK018406C], the viability at 28.5 h, 10 µM is 105%. For `C#CCNC(=O)CC[C@H]1CNC(=O)[C@@H]2[C@@H](CCN2Cc2nc3ccccc3n2C)N1C` [CBK289018], the viability at 28.5 h, 10 µM amounted to 102%. Turning to `CN(C)c1cccc(Nc2ncc(-c3ccc(N4CCOCC4)cc3)n3ccnc23)c1` [CBK091222], the viability at 28.5 h, 10 µM came to 94.5%. In the case of `Cc1cc(NC(=O)CN2CC=C(c3ccc(C)o3)CC2)no1` [CBK283608], the viability at 28.5 h, 10 µM is 106%.

As to `Clc1ccc(COc2nccnc2N2CCN(Cc3ccc4c(c3)OCO4)CC2)cc1Cl` [CBK083078T], the viability at 28.5 h, 10 µM amounted to 109%. Consider `CCOC(=O)N1CCN(C(=O)CCC(=O)O)CC1` [CBK287075], for which the viability at 28.5 h, 10 µM is 97.3%. Still for that read-out and setting: in the case of `COc1ncc(-c2nccnc2NCc2ccc(F)cc2)c(OC)n1` [CBK037668] it was 96.7%; in that of `Cc1nc(C2CCCC2)cc([C@H]2CN3CC[C@H]2C[C@@H]3CNS(C)(=O)=O)n1` [CBK289121], 87.6%; in that of `CC(=O)c1ccc(-c2ccc(C(=O)NCCc3ccc(S(N)(=O)=O)cc3)c(N(C)C(C)=O)n2)s1` [CBK076621], 91.9%.

Turning to `O=C(NCCc1cccs1)Nc1ccccc1` [CBK269917], the viability at 28.5 h, 10 µM worked out at 88.7%. As to `COc1ccc(C(=O)Nc2nc3ccc(S(N)(=O)=O)cc3s2)cc1` [CBK291147], the viability at 28.5 h, 10 µM was determined as 96.9%. In the case of `CCN(CC)CCN(C(=O)N1CCCC1)c1c(C)cccc1C` [CBK023237C], the viability at 28.5 h, 10 µM turned out to be 98.7%. Regarding `CSc1ccc(CN(C)CCN(C)C)cc1` [CBK019349], the viability at 28.5 h, 10 µM was 97.9%. As to `O=C(O)CCC(=O)N1C[C@@H]2C[C@H](C1)c1c(-c3ccc(Cl)cc3)ccc(=O)n1C2` [CBK289190], the viability at 28.5 h, 10 µM was 85.9%. Take `CN(C)c1nc(Oc2ccc(OCCOc3ccccc3)nn2)nc(N(C)C)n1` [CBK264976]: the viability at 28.5 h, 10 µM turned out to be 104%. Take `Cc1c(F)cccc1CN1CCN(S(=O)(=O)c2ccc(C(=O)c3ccccc3)cc2)CC1` [CBK062929]: the viability at 28.5 h, 10 µM came to 102%. In the case of `O=C(Nc1sc2c(c1C(=O)NCc1cccnc1)CCC2)c1ccco1` [CBK269599], the viability at 28.5 h, 10 µM was 81%.

Turning to `CSc1nsc(SCC(=O)c2ccc3c(c2)OCCO3)n1` [CBK268904], the viability at 28.5 h, 10 µM was determined as 108%. On the same count and under the same terms, in the case of `CC(C)NC(=O)CN1C(=O)N2CCCN=C2c2ccc(Cl)cc21` [CBK284390] it was 96.5%. Same read-out and setting: in the case of `CCN(C)c1c(C)nc2c(OCc3cccc(Cl)c3)cccn12` [CBK147310] it was 100%; in that of `N#Cc1ccc(Oc2ccc(C(=O)C(=O)c3ccccc3)cc2)cc1C#N` [CBK260959], 100%. For the molecule `O=C(O)C1CCCCC1C(=O)N1CCN(Cc2cccc3ccccc23)CC1` (stereo not shown) [CBK270293], the viability at 28.5 h, 10 µM came to 91.2%.

As for `Cc1ccc(-c2ncc(OCCN3CCCC3=O)nc2N)c(C)c1` [CBK145127], the viability at 28.5 h, 10 µM is 99.3%. As to `O=C(CO)N1CC2(CCN(Cc3cccc4cccnc34)CC2)c2ccccc21` [CBK137004], the viability at 28.5 h, 10 µM was determined as 104%. On to `O=C(NC1CCCC1)c1ccc2c(c1)OCO2` [CBK002177], for which the viability at 28.5 h, 10 µM came to 81%.

On to `Cc1cc(NS(=O)(=O)c2cccc3nsnc23)n(C)n1` [CBK067246], for which the viability at 28.5 h, 10 µM was determined as 95.4%. Regarding `COc1ccn2c(CCCN(C)C3Cc4ccccc4C3)nc(-c3ccc4c(c3)OCO4)c2c1` [CBK036303], the viability at 28.5 h, 10 µM was 100%. For the molecule `N#CCCN(C(=O)NCCN1CCOCC1)C1CCCCC1` [CBK156357], the viability at 28.5 h, 10 µM was 107%. Consider `Cn1nccc1NS(=O)(=O)c1ccc(-c2cc(C(F)(F)F)on2)s1` [CBK062087], for which the viability at 28.5 h, 10 µM was 97.4%. Consider `c1cnc(NCc2cc3n(n2)CCN(CC2CCCC2)C3)nc1` [CBK307007], for which the viability at 28.5 h, 10 µM was 87.9%. In the case of `CC12CN3CCN(CC(C3)C1(O)CN1CCOCC1)C2` (stereo not shown) [CBK263033], the viability at 28.5 h, 10 µM was found to be 103%. Same read-out and setting: in the case of `O=C(O)CCCNS(=O)(=O)c1ccc(C2CCCCC2)cc1` [CBK299800] it was 95.2%. Turning to `Cc1ccc(CSc2cnc(C(C)(C)C)nc2)cc1` [CBK019832], the viability at 28.5 h, 10 µM was determined as 112%.

With `Cn1cnnc1SCCNC(=O)N1CCc2sccc2C1` [CBK307385], the viability at 28.5 h, 10 µM turned out to be 97.3%. Take `Cc1cn(C2CC(O)C(CO)O2)c(=O)nc1SCCC#N` (stereo not shown) [CBK201201]: the viability at 28.5 h, 10 µM turned out to be 97.5%.

For the molecule `CCN(CC)CCN(C)C1CCN(C)CC1` [CBK261917], the viability at 28.5 h, 10 µM turned out to be 94.7%. As for `CC(=O)N1CCN(CC[C@@H]2CC[C@H](O)[C@@H](C(=O)N(C)Cc3ccccc3)O2)CC1` [CBK288716], the viability at 28.5 h, 10 µM turned out to be 93.3%.

In the case of `CCNc1cncc(-c2ccc(F)c(Cl)c2)n1` [CBK065322], the viability at 28.5 h, 10 µM worked out at 101%. Take `O=C(O)CC1SC(Nc2ccccc2F)=NC1=O` (stereo not shown) [CBK059096]: the viability at 28.5 h, 10 µM came out at 94.9%.

In the case of `CN(C)Cc1cc(C[C@@H]2C[C@H](NCc3ccccn3)C2(C)C)no1` [CBK289313], the viability at 28.5 h, 10 µM is 92.3%.

In the case of `Cc1ccn(CCC(=O)N2CCC3(C/C=C/C[C@H]4COCC[C@@H]4NC(=O)CNC3=O)CC2)n1` [CBK292070], the viability at 28.5 h, 10 µM is 86%.

For `O=C(O)CNC1=NC2(CCCCC2)Cc2ccccc21` [CBK287001], the viability at 28.5 h, 10 µM was 78.2%. For `C=CCSc1nnc(-c2ccccc2NC(=O)CC)c(O)n1` [CBK266411], the viability at 28.5 h, 10 µM was found to be 115%. For the molecule `CC(NC(=O)CCc1cccnc1)c1nc(-c2ccncc2)cs1` (stereo not shown) [CBK306243], the viability at 28.5 h, 10 µM worked out at 90.8%. As for `CCN(Cc1ccccc1)C(=O)NCCc1c[nH]c2ccc(OC)cc12` [CBK155226], the viability at 28.5 h, 10 µM amounted to 87%. With `O=C(Nc1ccc(C2(c3ccc(NC(=O)c4cccc5ccccc45)cc3)c3ccccc3-c3ccccc32)cc1)c1cccc2ccccc12` [CBK261163], the viability at 28.5 h, 10 µM is 102%. Consider `O=c1cc(N2CCCCC2)cnn1CCCn1cccn1` [CBK306907], for which the viability at 28.5 h, 10 µM was determined as 90.1%. With `O=C(Nc1ccc(S(=O)(=O)NCc2ccccc2)cc1)Nc1ccc2c(c1)OCO2` [CBK268186], the viability at 28.5 h, 10 µM is 95.1%. On the same count and under the same terms, in the case of `COCCN1C(=O)C2(CC(=O)N(CCOc3ccccc3)C2=O)c2ccccc21` (stereo not shown) [CBK075322] it was 98.5%. With `CN1CCN(CCCNC(=O)N2CCN(c3ccc(F)cc3)CC2)CC1` [CBK156386], the viability at 28.5 h, 10 µM stood at 91.2%. As for `O=C1NC(=O)N(Cc2ccco2)C(=O)/C1=C\c1ccc(-c2ccc(Cl)c(C(=O)O)c2)o1` [CBK263937], the viability at 28.5 h, 10 µM (bulk resorufin, single well) was 97.9%.

Regarding `COc1cc(CNC(=O)N2CCCC(CO)C2)cc(OC)c1OC` (stereo not shown) [CBK156041], the viability at 28.5 h, 10 µM worked out at 91.5%. Turning to `O=C(Nc1ccc(S(=O)(=O)N2CCCCCC2)cc1)c1ccc(NS(=O)(=O)c2ccccc2)cc1` [CBK268018], the viability at 28.5 h, 10 µM was 90.4%. Regarding `CCOC(=O)c1cnc2ccc(F)cc2c1N1CCN(C)CC1` [CBK304376], the viability at 28.5 h, 10 µM came to 90.1%.

As to `COc1ccc(Nc2ccc(-c3ccc4ccccc4c3)cn2)cn1` [CBK037744], the viability at 28.5 h, 10 µM turned out to be 88.6%. Take `Cc1cc2c(s1)c1cnn(CC(=O)OC(C)C)c(=O)c1n2C` [CBK284247]: the viability at 28.5 h, 10 µM turned out to be 102%. Regarding `Cc1ccc(-c2oncc2C(=O)N2CCC(C#N)(c3ccccc3)CC2)cc1` [CBK149179], the viability at 28.5 h, 10 µM (bulk resorufin, single well) worked out at 95.7%. Turning to `Cc1ccc(NC(=O)c2cnc3ccccc3n2)c(C)n1` [CBK200218], the viability at 28.5 h, 10 µM was 97.7%.

`CC(C)C(=O)N1CCC[C@@H](Cn2nc(-c3cccs3)ccc2=O)C1` [CBK282317]: the viability at 28.5 h, 10 µM was 96.5%. On the same count and under the same terms, in the case of `CC(C)(CC(=O)O)CC(=O)Nc1ccc(Cl)c(Cl)c1` [CBK086500] it was 92.6%. Still for that read-out and setting: the same measure for `O=C1Nc2c(cnn2-c2ccc(Cl)cc2)C2=NCCN12` [CBK284341]: 93.1%; for `CCCC(C)c1cn(CCc2cc(O)nc(C)n2)nn1` (stereo not shown) [CBK306871]: 93.8%. For `CCOC(=O)CSc1nnc(-c2ccncc2)n1-c1ccccc1` [CBK263350], the viability at 28.5 h, 10 µM was found to be 92%. Take `O=C1N=C(NC23CC4CC(CC(C4)C2)C3)OC1c1ccccc1` (stereo not shown) [CBK105263]: the viability at 28.5 h, 10 µM worked out at 107%. In the case of `COc1ccccc1CCC(=O)NCc1cnc(SC)n1C` [CBK306926], the viability at 28.5 h, 10 µM is 85.9%. Still for that read-out and setting: the same measure for `CC1(C)CC(=O)C2=C(C1)NC(SCC(=O)Nc1ccc(S(=O)(=O)N3CCCCC3)cc1)=C(C#N)C2c1ccco1` (stereo not shown) [CBK266695]: 94.3%; for `C=CCNc1nccnc1-c1ccc(C(C)=O)s1` [CBK037052]: 88.8%. For `O=C(C1=C(O)C(=O)N(c2ncccn2)C1c1cccc([N+](=O)[O-])c1)c1ccc(F)cc1` (stereo not shown) [CBK264932], the viability at 28.5 h, 10 µM stood at 85.2%.
